Results reported in article PMC7891380 (Chemical Biology & Drug Design, 2020).

System: multidrug‐resistant A. baumannii
Assay: Peptide MIC, standard microbroth dilution assay
Assay type: cell-based, Acinetobacter baumannii
Settings: result in words, based on MIC

**Q.** With “LKIPGFVKDTLKKVAKGIFSAVAGAMTPS [Hymenochirin‐2B]” as the sequence, how does the “potency against multidrug‐resistant A. baumannii” value read?
**A.** high potency
